We go through 5 compounds from ChEMBL document CHEMBL5537120 (Eur J Med Chem, 2024).

Activity calls are given as the source filed them. The calls are words filed in the database; no cut-off is given here. Where a SMILES comes first, the peptide text is derived from it. Bridges are numbered along the chain shown (N, C = ends).

In this assay the test system is SARS-CoV-2. The assay is described as follows: Antiviral activity against HIV-1 pseudotyped SARS-CoV-2 Omicron BA.2.75 infected in HEK293T cells harboring ACE2+/NRP1- assessed as reduction in infection rate pretreated with cells for 1 hr followed by viral infection and measured after 2 days by firefly luciferase reporter gene assay. It counts as functional, organism-based. To be noted: Severe acute respiratory syndrome coronavirus 2, time 49.0 hrs. (A reporter such as luciferase makes a cellular process visible.)

Consider `CC(C)C[C@@H]1NC(=O)[C@@H]2CCCN2C(=O)[C@H](CO)NC(=O)[C@@H](NC(=O)[C@H](Cc2cnc[nH]2)NC(=O)[C@H](CO)NC(=O)[C@H](Cc2ccccc2)NC(=O)[C@H](CC(=O)O)NC(=O)CN)CSSC[C@@H](C(=O)N[C@H](C(=O)N[C@@H](Cc2ccc(O)cc2)C(=O)N2CCC[C@H]2C(=O)N[C@@H](CC(=O)O)C(=O)N2CCC[C@H]2C(=O)N[C@@H](CCC(=O)O)C(=O)NCC(=O)NCC(=O)NCC(=O)N[C@@H](CCCCN)C(=O)N2CCC[C@H]2C(=O)N[C@@H](C)C(=O)N[C@@H](CCCNC(=N)N)C(=O)N2CCC[C@H]2C(=O)N[C@@H](C)C(=O)N[C@@H](CCCNC(=N)N)C(=O)O)[C@@H](C)O)NC(=O)[C@H](CCCCN)NC(=O)[C@H](Cc2ccccc2)NC(=O)[C@H](Cc2c[nH]c3ccccc23)NC(=O)[C@@H]2CCCN2C(=O)[C@H](Cc2ccccc2)NC(=O)[C@H](Cc2ccc(O)cc2)NC(=O)[C@H](CCCNC(=N)N)NC1=O` (H-GDFSHCSPLRYFPWFKCTYPDPEGGGKPARPAR-OH; disulfide 6-17), for which the outcome was Active.

On to `CC[C@H](C)[C@H](NC(=O)[C@H](Cc1ccccc1)NC(=O)[C@H](CCCCN)NC(=O)[C@H](CC(=O)O)NC(=O)CN)C(=O)N[C@H]1CSSC[C@@H](C(=O)N[C@@H](CC(N)=O)C(=O)N[C@@H](Cc2c[nH]c3ccccc23)C(=O)N[C@@H](Cc2ccc(O)cc2)C(=O)N[C@@H](CC(=O)O)C(=O)N2CCC[C@H]2C(=O)N[C@@H](CCC(=O)O)C(=O)NCC(=O)NCC(=O)NCC(=O)N[C@@H](CCCCN)C(=O)NCC(=O)N[C@@H](CC(N)=O)C(=O)N[C@@H](CCCNC(=N)N)C(=O)N2CCC[C@H]2C(=O)N2CCC[C@H]2C(=O)N[C@@H](CCCNC(=N)N)C(=O)O)NC(=O)[C@H](Cc2ccccc2)NC(=O)[C@H](CCCCN)NC(=O)[C@H](Cc2c[nH]c3ccccc23)NC(=O)[C@@H]2CCCN2C(=O)[C@H](CCCCN)NC(=O)[C@H](CC(=O)O)NC(=O)[C@H](CCCNC(=N)N)NC(=O)[C@H]([C@@H](C)CC)NC(=O)[C@@H]2CCCN2C(=O)[C@H](CC(C)C)NC1=O` (H-GDKFICLPIRDKPWKFCNWYDPEGGGKGNRPPR-OH; disulfide 6-17), for which the outcome was Active.

Regarding `CC(C)C[C@H](NC(=O)[C@H](CC(=O)O)NC(=O)CN)C(=O)N[C@@H](Cc1cnc[nH]1)C(=O)N[C@@H](C)C(=O)N[C@H]1CSSC[C@@H](C(=O)N[C@H](C(=O)N[C@@H](CC(C)C)C(=O)NCC(=O)N[C@@H](CC(=O)O)C(=O)N2CCC[C@H]2C(=O)N[C@@H](CCC(=O)O)C(=O)NCC(=O)NCC(=O)NCC(=O)N[C@@H](CCCNC(=N)N)C(=O)N[C@@H](CO)C(=O)N2CCC[C@H]2C(=O)N[C@@H](CCCNC(=N)N)C(=O)N[C@@H](CCCNC(=N)N)C(=O)N[C@@H](C)C(=O)N[C@@H](CCCNC(=N)N)C(=O)O)[C@@H](C)O)NC(=O)[C@H](C)NC(=O)[C@H](Cc2c[nH]c3ccccc23)NC(=O)[C@H](Cc2c[nH]c3ccccc23)NC(=O)[C@@H]2CCCN2C(=O)[C@H](CC(=O)O)NC(=O)CNC(=O)[C@H](CCCNC(=N)N)NC(=O)[C@H](C(C)C)NC(=O)[C@@H]2CCCN2C(=O)[C@H](CCCNC(=N)N)NC1=O` (H-GDLHACRPVRGDPWWACTLGDPEGGGRSPRRAR-OH; disulfide 6-17), the result was Active.

On to `CC[C@H](C)[C@@H]1NC(=O)[C@@H]2CCCN2C(=O)[C@H](CO)NC(=O)[C@@H](NC(=O)[C@@H](NC(=O)[C@H](Cc2ccc(O)cc2)NC(=O)[C@H](CCCNC(=N)N)NC(=O)[C@H](CC(=O)O)NC(=O)CN)[C@@H](C)O)CSSC[C@@H](C(=O)N[C@@H](CC(=O)O)C(=O)N[C@@H](CC(C)C)C(=O)NCC(=O)N[C@@H](CC(=O)O)C(=O)N2CCC[C@H]2C(=O)N[C@@H](CCC(=O)O)C(=O)NCC(=O)NCC(=O)NCC(=O)N[C@@H](CCCCN)C(=O)N[C@@H](C)C(=O)N2CCC[C@H]2C(=O)N[C@@H](CCCNC(=N)N)C(=O)N[C@@H](CCCNC(=N)N)C(=O)N[C@@H](C)C(=O)N[C@@H](CCCNC(=N)N)C(=O)O)NC(=O)[C@H](CCCNC(=N)N)NC(=O)[C@H](Cc2c[nH]c3ccccc23)NC(=O)[C@H](Cc2c[nH]c3ccccc23)NC(=O)[C@@H]2CCCN2C(=O)[C@H](Cc2ccccc2)NC(=O)[C@H](CCSC)NC(=O)[C@H](CCCNC(=N)N)NC1=O` (H-GDRYTCSPIRMFPWWRCDLGDPEGGGKAPRRAR-OH; disulfide 6-17), for which the result was Active.

Turning to `CC(C)C[C@@H]1NC(=O)[C@H](C)NC(=O)[C@H](CCCNC(=N)N)NC(=O)[C@@H](NC(=O)[C@@H]2CCCN2C(=O)[C@H](CO)NC(=O)[C@H](Cc2ccc(O)cc2)NC(=O)[C@H](CC(=O)O)NC(=O)CN)CSSC[C@@H](C(=O)N2CCC[C@H]2C(=O)N[C@@H](CO)C(=O)NCC(=O)N[C@@H](CC(=O)O)C(=O)N2CCC[C@H]2C(=O)N[C@@H](CCC(=O)O)C(=O)NCC(=O)NCC(=O)NCC(=O)N[C@@H](CCCNC(=N)N)C(=O)NCC(=O)N[C@@H](CCCNC(=N)N)C(=O)N[C@@H](CCCNC(=N)N)C(=O)N2CCC[C@H]2C(=O)N2CCC[C@H]2C(=O)N[C@@H](CCCNC(=N)N)C(=O)O)NC(=O)[C@H](CCCNC(=N)N)NC(=O)[C@H](Cc2c[nH]c3ccccc23)NC(=O)[C@H](Cc2c[nH]c3ccccc23)NC(=O)[C@@H]2CCCN2C(=O)[C@H](CO)NC(=O)[C@H](Cc2cnc[nH]2)NC(=O)[C@H](CCCNC(=N)N)NC1=O` (H-GDYSPCRALRHSPWWRCPSGDPEGGGRGRRPPR-OH; disulfide 6-17), the outcome was Active.
